# Read-outs that look alike come from different tables or passages of the source.
# What was measured:
# [1] = parameters: method as in PMID 27516803, PMID 24235859; settings: cited from earlier work
# [2] = test system: lactic acid bacteria (LAB); experiment: In vitro RGE fermentation with LAB; settings: for Alteration of ginsenoside by fermentation of RGE with LAB: 7 days incubation; for Increase of ginsenoside by fermentation of RGE with LAB: 7 days, relative to the first day
# [3] = parameters: method as in PMID 29375375, PMID 28955238; settings: 100–400 mg of CK, once daily for 9 days; cited from earlier work
# [4] = Recovery of ginsenosides from urine and feces for 48 h after RGE, amoxicillin with or without LAB; settings: for Fecal recovery, change by LAB treatment: feces 48 h after single oral RGE 2 g/kg, Amoxicillin + LAB vs amoxicillin
# Experimental: (§2) Mice received amoxicillin (n = 12, 20 mg/kg, dissolved in water at 2 mL/kg, twice daily) for 3 days via oral gavage. From the 4th day, mice from the LAB + amoxicillin treatment group received LAB (2 g/kg suspended in water at 2 mL/kg, once daily) for 7 days via oral gavage. Mice from the amoxicillin treatment group received water (2 mL/kg, once daily) for 7 days via oral gavage.
# [5] = Pharmacokinetics of ginsenosides after single oral RGE with or without amoxicillin treatment; type: in vivo, mice; settings: single oral RGE 2 g/kg; for AUC: AUC 0 to 48 h
# Experimental: Male ICR mice (7-weeks-year-old, 30–35 g) were purchased from Samtako Co. (Osan, Kyunggi-do, Korea). Animals were acclimatized for 1 week in an animal facility at Kyungpook National University. Food and water were available ad libitum.
# Before blood sampling, mice were anesthetized using isoflurane (isoflurane vaporizer to 2% with oxygen flow at 0.8 L/min) for 5 min.
# [6] = Pharmacokinetics of ginsenosides after single oral RGE after amoxicillin with or without repeated LAB treatment; settings: single oral RGE 2 g/kg; for AUC: AUC 0 to 48 h
# Experimental: as §2
# Blood sampling was performed using a sparse sampling method via the right or left retro-orbital vein under isoflurane anesthesia at 0, 2, 4, and 8 h after the RGE administration through the heparinized capillary tube. […] After centrifugation of the blood samples at 10,000× g for 1 min, 30 μL aliquots of plasma were stored at −80 °C until the analysis of the ginsenosides. Subsequent protocols were identical to the amoxicillin treated group.
# Pharmacokinetic parameters were calculated using WinNonlin (version 5.1, Pharsight, Mountain View, CA, USA) by a non-compartmental analysis.
# [7] = Recovery of ginsenosides from urine and feces for 48 h after RGE, amoxicillin vs control; settings: for Fecal recovery, change by the amoxicillin treatment: feces 48 h after single oral RGE 2 g/kg, vs control; for Ginsenosides identified in urine: urine 48 h after single oral RGE 2 g/kg
# Experimental: Aliquots (200 μL) of an IS (0.05 ng/mL berberine in methanol) were added to 30 μL of plasma or urine samples. Aliquots (600 μL) of an IS methanol solution containing 0.05 ng/mL berberine were added to 100 μL of 10% feces homogenate samples. […] After centrifugation, 200 μL of the supernatant was transferred to a clean tube and dried under a nitrogen stream at 40 °C. The residue was reconstituted using 100 μL of 70% methanol supplemented with 0.1% formic acid, and a 10-μL aliquot was injected into the LC–MS/MS system.
# [8] = Plasma protein binding by rapid equilibrium dialysis; type: in vitro ADME; settings: 1 μM, 4 h at 37 °C, mouse plasma
# Experimental: Briefly, 100 μL of mouse plasma containing 1 μM of each ginsenoside was added to the semipermeable membrane’s inner sample chamber (molecular weight cut-off 8000 Da), and 300 μL of PBS was added to the outer buffer chamber. The samples were then incubated for 4 h at 37 °C on a shaking incubator at 300 rpm, followed by collecting 30-μL aliquots from both the sample and buffer chambers.
# (§1) Subsequent protocols were identical to the method described above except for the use of ice-cold IS solution (200 μL; 0.05 ng/mL berberine in acetonitrile) to 30 μL of the reaction samples.
# Plasma protein binding was calculated using the following equation [31, 60]: Plasma protein binding=(1−Drug concentration in buffer chamber/Drug concentration in plasma sample chamber)×100(%).
# [9] = parameters: method as in PMID 32023909; settings: cited from earlier work
# [10] = test system: lactic acid bacteria (LAB); experiment: Incubation of single ginsenoside with LAB (formation rate of metabolite ginsenoside); type: in vitro ADME; settings: 7 days, 37 °C, MRS broth
# Experimental: To compare the involvement of LAB on individual ginsenoside, an aliquot (10 μL) of each ginsenoside stock solution (10 mM in methanol) was mixed with autoclaved MRS broth (550 mg/10 mL in distilled water) and added 2 g of LAB (contained 1 billion CFU). Then, the mixture was incubated for 7 days in a shaking incubator at 37 °C and 300 rpm. For the analysis of ginsenosides, 0.2 mL aliquot of incubation mixture was collected every 24 h for 7 days. The incubation medium was diluted 100-fold with distilled water and stored at −80 °C. For the ginsenoside analysis, 200 μL of an IS solution (0.05 ng/mL berberine in methanol) was added to 30 μL of 100-fold diluted samples.
# Microsomal stability = type: in vitro ADME, mouse; settings: 1 μM; for Metabolic stability in mouse liver microsomes: incubation for 1 h
# Experimental: For microsomal stability, individual ginsenoside (1 μM each) was reconstituted in 100 mM potassium phosphate buffer (pH 7.4) containing 0.25 mg of mouse liver microsomes and preincubated for 5 min at 37 °C. This reaction was initiated by adding an NADPH-generating system (1.3 mM β-NADP, 3.3 mM glucose-6-phosphate, 3.3 mM MgCl2, and 1.0 unit/mL glucose-6-phosphate dehydrogenase; purchased form Corning Life Sciences) (to make final volume of 100 μL). The reaction mixture was incubated for 1 h at 37 °C in a shaking water bath and the reaction was quenched by addition of addition of an ice-cold IS solution (200 μL; 0.05 ng/mL berberine in methanol) to 30 μL of the reaction samples.
# as §1
# Plasma and microsomal stability was determined from the percent of remaining concentration of ginsenosides or marker compounds compared to their initial concentration.
# [11] = Amoxicillin + LAB (LAB 2 g/kg once daily 7 days)
# [12] = Amoxicillin 3 days pretreatment
# [13] = Amoxicillin 3 days then water 7 days
Structure (SMILES),Alteration of ginsenoside by fermentation of RGE with LAB [2],"Fecal recovery, change by LAB treatment [4]","Cmax ([5]; Control, plasma) [ng/mL]","Half-Life ([5]; Control, plasma) [h]","MRT ([5]; Control, plasma) [h]","Tmax ([5]; Control, plasma) [h]","AUC ([5]; Control, plasma, n = 3) [ng·h/mL]","AUC [6, 11] [ng·h/mL]",Cmax ([6]; Amoxicillin + LAB) [ng/mL],Half-Life ([6]; Amoxicillin + LAB) [h],MRT ([6]; Amoxicillin + LAB) [h],Tmax ([6]; Amoxicillin + LAB) [h],Detection in mouse plasma following repeated LAB administration in addition to amoxicillin [6],"Plasma exposure / pharmacokinetic parameters, LAB treatment compared with amoxicillin group [6]",Ginsenosides identified in urine [7],Metabolite formation on incubation of single ginsenoside with LAB [10],also measured
"CC(C)=CCC[C@](C)(O[C@@H]1O[C@H](CO)[C@@H](O)[C@H](O)[C@H]1O)[C@H]1CC[C@]2(C)[C@@H]1[C@H](O)C[C@@H]1[C@@]3(C)CC[C@H](O)C(C)(C)[C@@H]3CC[C@]12C [CK, 20(S)-compound K]",significantly increased,significantly increased,3.6 ± 1.4,13.2 ± 3.2,13.9 ± 5.3,8.0 ± 0.0,69.94 ± 37.8,249.8 ± 103.0,9.3 ± 2.9,12.0 ± 5.0,13.7 ± 6.2,8.0 ± 0.0,detected,increased,identified in urine,,"Plasma concentration of CK, Cmax ([1]; subjects who received 3 g fermented RGE (contains 10.9 mg CK)): 254.5 ng/mL; Plasma concentration of CK, Cmax ([1]; subjects who received RGE (does not contain CK)): 8.4 to 24.8 ng/mL; Increase of ginsenoside by fermentation of RGE with LAB [2]: about 30%; Safety and tolerability [3]: safe and well-tolerated; Detection in plasma, amoxicillin treatment group [5]: not seen; Detection in plasma, control group [5]: detected; Fecal recovery, change by the amoxicillin treatment [7]: significantly decreased"
CC(C)=CCC[C@](C)(O[C@@H]1O[C@H](CO)[C@@H](O)[C@H](O)[C@H]1O)[C@H]1CC[C@]2(C)[C@@H]1[C@H](O)C[C@@H]1[C@@]3(C)CC[C@H](O)C(C)(C)[C@@H]3[C@@H](O)C[C@]12C [GF1],most significant decrease,remained similar,,,,,,,,,,,,,,,Plasma protein binding [8]: over 99%
CC(C)=CCC[C@](C)(O[C@@H]1O[C@H](CO[C@@H]2O[C@@H](CO)[C@H](O)[C@H]2O)[C@@H](O)[C@H](O)[C@H]1O)[C@H]1CC[C@]2(C)[C@@H]1[C@H](O)C[C@@H]1[C@@]3(C)CC[C@H](O[C@@H]4O[C@H](CO)[C@@H](O)[C@H](O)[C@H]4O[C@@H]4O[C@H](CO)[C@@H](O)[C@H](O)[C@H]4O)C(C)(C)[C@@H]3CC[C@]12C [GRc],most significant decrease,significantly decreased,17.2 ± 3.1,22.8 ± 6.7,19.9 ± 1.7,8.0 ± 0.0,508.6 ± 109,524.4 ± 146.6,18.3 ± 4.3,24.1 ± 2.4,19.0 ± 1.3,8.0 ± 0.0,detected,not different,identified in urine,produced GRg3 with the highest formation rate,"Cmax [5, 12]: 14.8 ± 6.6 ng/mL; Half-Life [5, 12]: 25.1 ± 9.9 h; MRT [5, 12]: 21.9 ± 1.5 h; Tmax [5, 12]: 13.3 ± 9.2 h; AUC [5, 12]: 571.7 ± 276 ng·h/mL; Plasma concentrations, amoxicillin treatment compared to the control group [5]: not significantly affected; Ratio of liver AUC to plasma AUC [9]: < 0.2; Cmax [6, 13]: 13.2 ± 6.6 ng/mL; Half-Life [6, 13]: 20.2 ± 1.8 h; MRT [6, 13]: 20.6 ± 1.2 h; Tmax [6, 13]: 4.7 ± 3.1 h; AUC [6, 13]: 448.2 ± 268.1 ng·h/mL; Fecal recovery, change by the amoxicillin treatment [7]: increased"
CC(C)=CCC[C@](C)(O[C@@H]1O[C@H](CO)[C@@H](O)[C@H](O)[C@H]1O)[C@H]1CC[C@]2(C)[C@@H]1[C@H](O)C[C@@H]1[C@@]3(C)CC[C@H](O[C@@H]4O[C@H](CO)[C@@H](O)[C@H](O)[C@H]4O[C@@H]4O[C@H](CO)[C@@H](O)[C@H](O)[C@H]4O)C(C)(C)[C@@H]3CC[C@]12C [GRd],gradual decrease,significantly decreased,8.6 ± 1.8,24.2 ± 3.1,21.3 ± 3.0,13.3 ± 9.2,278.8 ± 117,618.1 ± 385.6,18.4 ± 6.9,25.5 ± 3.8,20.6 ± 3.7,16.0 ± 9.2,detected,increased,identified in urine,produced GRg3 with the highest formation rate,"Urinary excretion, Amoxicillin + LAB compared with amoxicillin group ([4]; urine 48 h after single oral RGE 2 g/kg): increased; Cmax [5, 12]: 3.2 ± 1.6 ng/mL; Half-Life [5, 12]: 29.1 ± 8.6 h; MRT [5, 12]: 24.0 ± 2.1 h; Tmax [5, 12]: 24.7 ± 23.0 h; AUC [5, 12]: 132.4 ± 77 ng·h/mL; Plasma concentrations, amoxicillin treatment compared to the control group [5]: decreased; Ratio of liver AUC to plasma AUC [9]: < 0.2; Cmax [6, 13]: 6.5 ± 5.1 ng/mL; Half-Life [6, 13]: 29.2 ± 2.7 h; MRT [6, 13]: 24.1 ± 3.9 h; Tmax [6, 13]: 5.3 ± 2.3 h; AUC [6, 13]: 213.1 ± 151.3 ng·h/mL; Plasma exposure / pharmacokinetic parameters, LAB treatment compared with amoxicillin group ([6]; listed as Rd): significantly increased"
"CC(C)=CCC[C@](C)(O)[C@H]1CC[C@]2(C)[C@@H]1[C@H](O)C[C@@H]1[C@@]3(C)CC[C@H](O)C(C)(C)[C@@H]3[C@@H](O[C@@H]3O[C@H](CO)[C@@H](O)[C@H](O)[C@H]3O)C[C@]12C [GRh1, ginsenoside Rh1]",,remained similar,,,,,,,,,,,not found,,,,Metabolic stability in mouse liver microsomes (Microsomal stability): unstable; Increase of ginsenoside by fermentation of RGE with LAB [2]: about 30%
CC(C)=CCC[C@](C)(O)[C@H]1CC[C@]2(C)[C@@H]1[C@H](O)C[C@@H]1[C@@]3(C)CC[C@H](O[C@@H]4O[C@H](CO)[C@@H](O)[C@H](O)[C@H]4O)C(C)(C)[C@@H]3CC[C@]12C [GRh2],remained unchanged,remained similar,,,,,,,,,,,not found,,,the highest among the ginsenoside formation rate,Metabolic stability in mouse liver microsomes (Microsomal stability): unstable
"CN(C)C(=N)N=C(N)N [metformin, reference compound]",,,,,,,,,,,,,,,,,"percent of remaining after 1 h incubation in the mouse liver microsomes (Microsomal stability; NADPH-generating system, 37 °C): 69.35 ± 3.00%"
